Experimental data taken from the supplement of paper PMC10307832.

What was measured:
Test in all cases: relative viability (nuclei count vs DMSO), 5 days (fraction); higher = more cells survive
IPA-3 + Foretinib = compound: C1=CC=C2C(=C1)C=CC(=C2SSC3=C(C=CC4=CC=CC=C43)O)O [IPA-3] + COc1cc2c(Oc3ccc(NC(=O)C4(C(=O)Nc5ccc(F)cc5)CC4)cc3F)ccnc2cc1OCCCN1CCOCC1 [Foretinib] (partner 0.25 µM)
Summary of the method: (§1)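 Medians of duplicate plates are given as relative viability. That measure is the nuclei count in treated wells divided by the count in vehicle wells. Counts were taken on 4× images of lung cancer cell lines in 1536-well plates, 5 days after pin-tool dosing the day after seeding with one drug alone or a fixed anchor-drug dose plus five library-drug doses (not always all listed) in √10 steps.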

IPA-3 + Bortezomib = compound: C1=CC=C2C(=C1)C=CC(=C2SSC3=C(C=CC4=CC=CC=C43)O)O [IPA-3] + CC(C)C[C@H](NC(=O)[C@H](Cc1ccccc1)NC(=O)c1cnccn1)B(O)O [Bortezomib] (partner 0.002 µM)
Summary of the method: as §1

RAF265 + Vorinostat = compound: Cn1c(Nc2ccc(C(F)(F)F)cc2)nc2cc(Oc3ccnc(-c4ncc(C(F)(F)F)[nH]4)c3)ccc21 [RAF265] + O=C(CCCCCCC(=O)Nc1ccccc1)NO [Vorinostat] (partner 1 µM)
Summary of the method: as §1

Doramapimod + Tozasertib = compound: Cc1ccc(-n2nc(C(C)(C)C)cc2NC(=O)Nc2ccc(OCCN3CCOCC3)c3ccccc23)cc1 [Doramapimod] + Cc1cc(Nc2cc(N3CCN(C)CC3)nc(Sc3ccc(NC(=O)C4CC4)cc3)n2)n[nH]1 [Tozasertib] (partner 0.1 µM)
Summary of the method: as §1

Row | Cell Line | relative viability (IPA-3 + Foretinib; first compound 0.2 µM) | relative viability (IPA-3 + Foretinib; first compound 0.6325 µM) | relative viability (IPA-3 + Foretinib; first compound 2 µM) | relative viability (IPA-3 + Foretinib; first compound 6.325 µM) | relative viability (IPA-3 + Foretinib; first compound 20 µM) | relative viability (IPA-3 + Bortezomib; first compound 0.2 µM) | relative viability (IPA-3 + Bortezomib; first compound 0.6325 µM) | relative viability (IPA-3 + Bortezomib; first compound 2 µM) | relative viability (IPA-3 + Bortezomib; first compound 6.325 µM) | relative viability (IPA-3 + Bortezomib; first compound 20 µM) | relative viability (RAF265 + Vorinostat; first compound 0.01 µM) | relative viability (RAF265 + Vorinostat; first compound 0.03162 µM) | relative viability (RAF265 + Vorinostat; first compound 0.1 µM) | relative viability (RAF265 + Vorinostat; first compound 0.3162 µM) | relative viability (RAF265 + Vorinostat; first compound 1 µM) | relative viability (Doramapimod + Tozasertib; first compound 0.02 µM) | relative viability (Doramapimod + Tozasertib; first compound 0.06325 µM) | relative viability (Doramapimod + Tozasertib; first compound 0.2 µM) | relative viability (Doramapimod + Tozasertib; first compound 0.6325 µM) | relative viability (Doramapimod + Tozasertib; first compound 2 µM)
1 | LCLC-97TM1 | 0.958 | 0.928 | 0.915 | 0.861 | 0.958 | 0.524 | 0.847 | 0.814 | 0.438 | 0.575 | 0.719 | 0.508 | 0.544 | 0.525 | 0.421 | 0.22 | 0.228 | 0.21 | 0.266 | 0.142
2 | LCLC-103H | 0.908 | 0.862 | 0.756 | 0.725 | 0.775 | 1.13 | 1.06 | 1.17 | 1.17 | 1.18 | 0.844 | 0.892 | 0.683 | 0.565 | 0.422 | 0.431 | 0.529 | 0.388 | 0.544 | 0.432
3 | LOU-NH91 | 0.955 | 0.861 | 0.942 | 0.916 | 1.07 | 0.493 | 0.479 | 0.498 | 0.478 | 0.597 | 1 | 0.807 | 0.926 | 0.755 | 0.712 | 0.715 | 0.66 | 0.798 | 0.76 | 0.488
4 | LU99A | 0.877 | 0.734 | 0.687 | 0.763 | 0.921 | 1.23 | 1.07 | 1.28 | 1.04 | 1.06 | 0.515 | 0.447 | 0.402 | 0.286 | 0.261 | 0.307 | 0.248 | 0.294 | 0.252 | 0.264
5 | LXF-289 | 1 | 0.919 | 0.993 | 1.01 | 1.11 | 1.03 | 0.954 | 1.04 | 1.04 | 1.1 | 0.768 | 0.752 | 0.754 | 0.606 | 0.571 | 0.207 | 0.177 | 0.177 | 0.19 | 0.203
6 | NCI-H23 | 1.03 | 1.02 | 0.971 | 1 | 1.17 | 1.39 | 0.964 | 1.08 | 1.06 | 0.797 | 0.701 | 0.496 | 0.39 | 0.248 | 0.229 | 0.622 | 0.34 | 0.366 | 0.433 | 0.326
7 | NCI-H322M | 1.05 | 0.961 | 1.15 | 1.04 | 1.13 | 1.31 | 1.21 | 1.19 | 1.32 | 1.23 | 0.875 | 0.866 | 0.516 | 0.403 | 0.348 | 0.519 | 0.487 | 0.532 | 0.497 | 0.531
8 | NCI-H441 | 1.14 | 1.2 | 0.79 | 0.837 | 1 | 0.446 |  | 0.285 | 0.734 | 0.589 | 0.802 | 0.712 | 0.643 | 0.715 | 0.421 | 0.719 | 0.63 | 0.576 |  | 0.622
